Laboratory results reported in patent publication US20250120967A1, “TYROSINE KINASES INHIBITORS AND USES THEREOF” (GREAT NOVEL THERAPEUTICS BIOTECH & MEDICALS CORPORATION, priority 2023, published 2025).
Where two headings read alike, the source gives them in different places.

Experiments:
A549 cells = assay: In vitro cytotoxicity assay (MTT, 72 h); assay type: cell-based; settings: Homo sapiens, growth inhibition
Procedure: (§1) Six different cell lines were used, including human breast cancer cell lines MDA-MB-231 (6×10^3) and MDA-MB-453 (2.4×10^4), human colorectal cell line SW48 (2.4×10^4), human breast epithelial cell line M10 (6×10^3), human cancer cell line A549 (1.4×10^3), and murine colorectal carcinoma tumors CT26 (6×10^3), which were seeded in a 96-well plate. […] After 72 h, MTT assay (Cayman™) was used to determine the cellular viability.

M10 cells = assay: In vitro cytotoxicity assay (MTT, 72 h); assay type: cell-based; settings: growth inhibition, human normal cell line
Procedure: as §1

MDA-MB-231 cells = assay: In vitro cytotoxicity assay (MTT, 72 h); assay type: cell-based; settings: Homo sapiens, growth inhibition
Procedure: as §1

MDA-MB-453 cells = assay: In vitro cytotoxicity assay (MTT, 72 h); assay type: cell-based; settings: Homo sapiens, growth inhibition
Procedure: as §1

SW48 cells = assay: In vitro cytotoxicity assay (MTT, 72 h); assay type: cell-based; settings: Homo sapiens, growth inhibition
Procedure: as §1

CSF1R (FMS) = CSF1R (FMS) (Homo sapiens, UniProt P07333); assay: Tyrosine kinase inhibition assay; assay type: biochemical; settings: for IC50: read-out: IC50 of compound; for inhibition at 1 µM: single concentration 1.0 μM, read-out: percent inhibition
Procedure: (§2) Tyrosine kinase inhibition assays were performed at ThermoFisher Life Technologies (Madison, WI, USA) using standard protocols (SelectScreen Biochemical Profiling Service, Thermo Fisher Scientific). ATP concentrations used were at the apparent Km. Test compounds were screened in 1% dimethylsulffoxide (DMSO) (final concentration) in the well. For 10-point titrations, 3-fold serial dilutions were conducted from the starting concentration of […]. All Peptide/Kinase Mixtures were diluted to a 2× working concentration in the appropriate Kinase Buffer. All ATP Solutions were diluted to a 4× working concentration in Kinase Buffer (50 mM HEPES pH 7.5, 0.01% BRIJ-35, 10 mM MgCl2, 1 mM EGTA). The apparent ATP Km was previously determined using a Z′-LYTE assay. The Development Reagent was diluted in Development Buffer.
(§3) The inhibition activities of compounds were determined in biochemical assays using single concentration (1.0 μM) measurements. The results were provided as percent inhibition values. […] 99 different tyrosine kinases were used.

FLT3 = biological target: T1, FLT3 (Homo sapiens, UniProt P36888); assay: Tyrosine kinase inhibition assay; assay type: biochemical; settings: for inhibition at 1 µM: single concentration 1.0 μM, read-out: percent inhibition; for IC50: read-out: IC50 of compound
T1 sequence (P36888 27-993): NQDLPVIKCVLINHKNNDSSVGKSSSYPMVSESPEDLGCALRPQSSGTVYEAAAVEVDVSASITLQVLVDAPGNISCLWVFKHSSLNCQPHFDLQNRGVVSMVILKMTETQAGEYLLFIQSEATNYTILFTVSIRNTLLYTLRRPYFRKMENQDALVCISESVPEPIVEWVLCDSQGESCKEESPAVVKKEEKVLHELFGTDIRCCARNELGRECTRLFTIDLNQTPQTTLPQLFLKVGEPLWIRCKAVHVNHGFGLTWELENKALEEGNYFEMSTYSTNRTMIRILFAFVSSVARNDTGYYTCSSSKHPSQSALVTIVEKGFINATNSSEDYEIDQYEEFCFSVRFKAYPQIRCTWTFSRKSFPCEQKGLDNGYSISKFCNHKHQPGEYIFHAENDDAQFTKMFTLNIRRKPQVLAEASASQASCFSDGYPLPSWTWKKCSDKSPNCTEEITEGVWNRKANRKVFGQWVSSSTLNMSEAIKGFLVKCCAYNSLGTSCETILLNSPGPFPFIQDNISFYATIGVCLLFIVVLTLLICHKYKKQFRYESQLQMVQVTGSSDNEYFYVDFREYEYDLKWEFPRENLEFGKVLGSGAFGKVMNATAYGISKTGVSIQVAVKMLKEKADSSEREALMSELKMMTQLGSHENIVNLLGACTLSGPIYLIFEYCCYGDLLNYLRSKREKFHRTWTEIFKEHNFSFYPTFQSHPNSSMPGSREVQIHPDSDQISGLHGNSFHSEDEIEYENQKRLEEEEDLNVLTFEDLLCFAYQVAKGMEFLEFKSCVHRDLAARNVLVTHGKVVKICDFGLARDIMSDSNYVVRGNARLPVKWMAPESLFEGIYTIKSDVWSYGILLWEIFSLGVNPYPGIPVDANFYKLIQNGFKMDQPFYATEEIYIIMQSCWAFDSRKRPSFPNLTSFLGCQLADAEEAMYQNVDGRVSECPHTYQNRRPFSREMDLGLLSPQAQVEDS
Procedure: as §2, §3

MST1R (RON) = MST1R (RON) (Homo sapiens, UniProt Q04912); assay: Tyrosine kinase inhibition assay; assay type: biochemical; settings: for inhibition at 1 µM: single concentration 1.0 μM, read-out: percent inhibition; for IC50: read-out: IC50 of compound
Procedure: as §2, §3

TEK (Tie2) = TEK (Tie2) (Homo sapiens, UniProt Q02763); assay: Tyrosine kinase inhibition assay; assay type: biochemical; settings: for inhibition at 1 µM: single concentration 1.0 μM, read-out: percent inhibition; for IC50: read-out: IC50 of compound
Procedure: as §2, §3

TYRO3 (RSE) = biological target: T2, TYRO3 (RSE) (Homo sapiens, UniProt Q06418); assay: Tyrosine kinase inhibition assay; assay type: biochemical; settings: for inhibition at 1 µM: single concentration 1.0 μM, read-out: percent inhibition
T2 sequence (Q06418 41-890): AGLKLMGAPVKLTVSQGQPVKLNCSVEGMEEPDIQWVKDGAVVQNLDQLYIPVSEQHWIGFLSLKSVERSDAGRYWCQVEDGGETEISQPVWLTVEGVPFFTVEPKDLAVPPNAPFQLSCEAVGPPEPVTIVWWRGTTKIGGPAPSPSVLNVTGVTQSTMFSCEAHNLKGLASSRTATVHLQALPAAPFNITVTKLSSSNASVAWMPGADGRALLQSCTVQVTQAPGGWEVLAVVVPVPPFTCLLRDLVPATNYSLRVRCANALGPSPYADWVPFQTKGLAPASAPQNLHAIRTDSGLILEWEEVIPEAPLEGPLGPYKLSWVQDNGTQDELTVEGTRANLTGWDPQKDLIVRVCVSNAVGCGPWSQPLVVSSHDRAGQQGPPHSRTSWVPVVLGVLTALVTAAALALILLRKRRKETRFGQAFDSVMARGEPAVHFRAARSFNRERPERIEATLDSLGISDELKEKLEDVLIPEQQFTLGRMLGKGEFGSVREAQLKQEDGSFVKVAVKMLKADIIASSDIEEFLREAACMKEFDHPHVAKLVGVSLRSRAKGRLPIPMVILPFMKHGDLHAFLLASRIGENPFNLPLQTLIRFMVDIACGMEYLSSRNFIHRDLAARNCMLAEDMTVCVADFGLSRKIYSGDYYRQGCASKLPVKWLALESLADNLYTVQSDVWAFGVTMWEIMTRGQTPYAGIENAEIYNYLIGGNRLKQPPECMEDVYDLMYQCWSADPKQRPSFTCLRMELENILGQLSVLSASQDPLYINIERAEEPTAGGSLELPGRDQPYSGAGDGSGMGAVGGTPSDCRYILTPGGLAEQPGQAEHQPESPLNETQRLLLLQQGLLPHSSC
Procedure: as §2, §3

[1] = TYRO3 (RSE), read-out: IC50 of compound

Chain of TEK (Tie2) (Q02763 23-1124): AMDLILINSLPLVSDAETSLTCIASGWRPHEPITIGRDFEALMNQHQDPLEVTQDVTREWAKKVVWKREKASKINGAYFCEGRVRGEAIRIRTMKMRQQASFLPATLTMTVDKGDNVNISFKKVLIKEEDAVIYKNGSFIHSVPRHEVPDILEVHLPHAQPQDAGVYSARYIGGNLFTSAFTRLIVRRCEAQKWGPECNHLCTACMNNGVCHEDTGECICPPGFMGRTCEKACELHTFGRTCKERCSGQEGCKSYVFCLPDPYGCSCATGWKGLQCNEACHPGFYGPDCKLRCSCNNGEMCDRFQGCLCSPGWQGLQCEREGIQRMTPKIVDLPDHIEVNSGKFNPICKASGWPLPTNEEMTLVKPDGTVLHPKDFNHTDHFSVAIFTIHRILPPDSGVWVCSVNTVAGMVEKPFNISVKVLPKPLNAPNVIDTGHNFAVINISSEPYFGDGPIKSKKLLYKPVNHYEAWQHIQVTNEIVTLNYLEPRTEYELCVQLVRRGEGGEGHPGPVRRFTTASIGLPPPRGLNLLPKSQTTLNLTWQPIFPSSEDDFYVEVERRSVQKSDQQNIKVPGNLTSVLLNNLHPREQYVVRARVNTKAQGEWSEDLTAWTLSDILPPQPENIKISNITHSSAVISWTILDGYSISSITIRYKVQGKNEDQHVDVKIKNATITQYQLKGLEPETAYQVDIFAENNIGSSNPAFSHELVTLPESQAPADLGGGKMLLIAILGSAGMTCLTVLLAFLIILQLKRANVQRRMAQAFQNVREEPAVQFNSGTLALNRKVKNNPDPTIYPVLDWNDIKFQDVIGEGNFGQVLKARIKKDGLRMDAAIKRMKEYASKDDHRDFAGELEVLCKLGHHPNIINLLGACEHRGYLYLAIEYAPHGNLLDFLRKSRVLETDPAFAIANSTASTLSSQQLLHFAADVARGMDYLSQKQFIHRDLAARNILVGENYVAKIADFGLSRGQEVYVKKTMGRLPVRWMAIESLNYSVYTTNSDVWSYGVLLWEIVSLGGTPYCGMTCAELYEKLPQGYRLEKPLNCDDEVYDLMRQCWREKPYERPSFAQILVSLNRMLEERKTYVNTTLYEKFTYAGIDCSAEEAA
Chain of CSF1R (FMS) (P07333 20-972): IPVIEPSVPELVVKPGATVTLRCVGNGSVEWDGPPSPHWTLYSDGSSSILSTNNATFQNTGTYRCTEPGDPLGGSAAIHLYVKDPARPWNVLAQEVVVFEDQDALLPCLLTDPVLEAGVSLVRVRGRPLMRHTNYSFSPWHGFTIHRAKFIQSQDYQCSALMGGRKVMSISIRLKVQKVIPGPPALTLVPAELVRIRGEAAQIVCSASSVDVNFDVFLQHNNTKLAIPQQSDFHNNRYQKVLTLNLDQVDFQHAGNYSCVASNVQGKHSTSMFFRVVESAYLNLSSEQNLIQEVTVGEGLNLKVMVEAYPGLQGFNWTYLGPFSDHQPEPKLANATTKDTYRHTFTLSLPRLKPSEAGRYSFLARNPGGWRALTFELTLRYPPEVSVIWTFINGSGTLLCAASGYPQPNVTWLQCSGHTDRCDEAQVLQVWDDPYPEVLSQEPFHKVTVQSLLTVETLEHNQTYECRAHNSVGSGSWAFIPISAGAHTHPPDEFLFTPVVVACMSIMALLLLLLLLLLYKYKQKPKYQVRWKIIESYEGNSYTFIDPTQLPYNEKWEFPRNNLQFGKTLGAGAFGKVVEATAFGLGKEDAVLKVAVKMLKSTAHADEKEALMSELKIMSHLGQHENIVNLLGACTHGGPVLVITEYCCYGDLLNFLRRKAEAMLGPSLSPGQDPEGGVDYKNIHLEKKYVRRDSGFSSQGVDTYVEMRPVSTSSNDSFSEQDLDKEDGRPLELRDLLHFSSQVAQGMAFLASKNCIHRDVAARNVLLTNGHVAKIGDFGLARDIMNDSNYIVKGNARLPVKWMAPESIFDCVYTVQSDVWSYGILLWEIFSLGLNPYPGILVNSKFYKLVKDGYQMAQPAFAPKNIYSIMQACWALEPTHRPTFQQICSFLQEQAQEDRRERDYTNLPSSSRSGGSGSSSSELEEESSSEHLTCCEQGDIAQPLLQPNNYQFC
Chain of MST1R (RON) (Q04912 25-1400): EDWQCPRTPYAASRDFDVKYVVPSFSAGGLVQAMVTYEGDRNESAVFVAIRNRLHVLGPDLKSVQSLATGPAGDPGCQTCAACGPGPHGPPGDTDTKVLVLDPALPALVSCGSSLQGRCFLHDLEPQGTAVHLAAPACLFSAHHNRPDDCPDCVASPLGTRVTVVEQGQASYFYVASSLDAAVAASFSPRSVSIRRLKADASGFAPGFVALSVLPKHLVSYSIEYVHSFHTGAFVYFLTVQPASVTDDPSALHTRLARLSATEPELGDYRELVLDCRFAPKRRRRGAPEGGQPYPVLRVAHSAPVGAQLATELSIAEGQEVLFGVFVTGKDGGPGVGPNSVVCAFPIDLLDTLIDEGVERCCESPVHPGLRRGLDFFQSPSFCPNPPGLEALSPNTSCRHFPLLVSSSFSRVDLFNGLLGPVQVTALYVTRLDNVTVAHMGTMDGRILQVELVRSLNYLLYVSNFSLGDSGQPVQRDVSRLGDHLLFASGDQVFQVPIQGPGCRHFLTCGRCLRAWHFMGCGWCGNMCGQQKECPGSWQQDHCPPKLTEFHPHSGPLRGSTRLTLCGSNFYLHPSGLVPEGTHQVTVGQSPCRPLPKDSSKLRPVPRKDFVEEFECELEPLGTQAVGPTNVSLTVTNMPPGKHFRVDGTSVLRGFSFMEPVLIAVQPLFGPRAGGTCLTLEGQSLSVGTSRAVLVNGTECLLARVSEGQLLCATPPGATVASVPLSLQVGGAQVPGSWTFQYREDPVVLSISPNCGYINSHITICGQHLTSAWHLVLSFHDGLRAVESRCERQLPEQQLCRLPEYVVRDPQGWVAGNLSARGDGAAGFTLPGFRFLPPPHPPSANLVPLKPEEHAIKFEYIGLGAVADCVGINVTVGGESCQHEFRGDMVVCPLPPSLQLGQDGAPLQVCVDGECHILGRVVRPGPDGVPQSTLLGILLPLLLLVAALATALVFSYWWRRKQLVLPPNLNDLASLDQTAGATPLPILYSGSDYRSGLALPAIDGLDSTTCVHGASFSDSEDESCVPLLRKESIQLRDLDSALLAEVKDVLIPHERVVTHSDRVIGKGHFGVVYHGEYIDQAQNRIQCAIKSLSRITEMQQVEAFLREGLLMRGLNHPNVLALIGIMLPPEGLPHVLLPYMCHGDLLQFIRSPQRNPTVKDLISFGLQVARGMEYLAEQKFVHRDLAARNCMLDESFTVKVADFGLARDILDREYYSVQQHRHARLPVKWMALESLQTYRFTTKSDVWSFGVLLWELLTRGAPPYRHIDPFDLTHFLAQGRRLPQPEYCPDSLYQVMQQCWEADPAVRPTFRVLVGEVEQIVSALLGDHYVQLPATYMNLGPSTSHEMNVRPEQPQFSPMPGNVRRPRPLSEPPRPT

| SMILES | IC50 (A549 cells) [nM] | IC50 (M10 cells) [nM] | IC50 (MDA-MB-231 cells) [nM] | IC50 (MDA-MB-453 cells) [nM] | IC50 (SW48 cells) [nM] | IC50 (CSF1R (FMS)) [nM] | inhibition at 1 µM (CSF1R (FMS)) [%] | inhibition at 1 µM (FLT3) [%] | inhibition at 1 µM (MST1R (RON)) [%] | inhibition at 1 µM (TEK (Tie2)) [%] | IC50 (TYRO3 (RSE)) [nM] | inhibition at 1 µM (TYRO3 (RSE); TYRO3 (RSE)) [%] | IC50 (FLT3) [nM] | IC50 (MST1R (RON)) [nM] | IC50 (TEK (Tie2)) [nM] | IC50 (TYRO3 (RSE); [1]) [nM] |
| --- | --- | --- | --- | --- | --- | --- | --- | --- | --- | --- | --- | --- | --- | --- | --- | --- |
| COc1cc2nccc(Oc3ccc(NC(=O)C4(C(=O)Nc5ccc(F)cc5)CC4)cc3)c2cc1OC [Cabozantinib, reference compound] | 4050 ± 460 | 9570 ± 1620 | 8720 ± 1080 | 20500 ± 4480 | 4330 ± 330 | 11.9 | 88 | 90 | 95 | 89 | 9.1 | – | – | – | – | – |
| COc1cc2nccc(Oc3ccc(NC(=O)C4(NC(=O)c5ccc(F)cc5)CC4)cc3F)c2cc1OC [Cbo-02, N-(1-((4-((6,7-diMethoxyquinolin-4-yl)oxy)-3-fluorophenyl)carbamoyl)cyclopropyl)-4-fluorobenzamide] | 1510 ± 57 | 3920 ± 250 | 5640 ± 360 | 5310 ± 570 | 820 ± 11 | – | 83 | 56 | 96 | 77 | – | 58 | – | – | – | – |
| COc1cc2nccc(Oc3ccc(NC(=O)C4(NC(=O)c5ccc(F)cc5)CC4)cc3F)c2cc1Oc1ccc(N)cc1F [Cbo-10] | 1180 ± 36 | 911 ± 25 | 2450 ± 140 | 4670 ± 280 | 790 ± 1 | – | 96 | 70 | 100 | 85 | – | 87 | – | – | – | – |
| COc1cc2nccc(Oc3ccc(NC(=O)C4(NC(=O)c5ccc(F)cc5)CC4)cc3F)c2cc1Oc1c(F)cc(N)cc1F [Cbo-14] | 1230 ± 34 | 920 ± 8 | 14400 ± 5300 | 2680 ± 750 | 790 ± 1 | – | 93 | 81 | 100 | 90 | – | 89 | – | – | – | – |
| COc1cc2nccc(Oc3ccc(NC(=O)C4(C(=O)Nc5ccc(F)cc5)CC4)cc3F)c2cc1Oc1ccc(N)cc1F [Cbo-23] | 1690 ± 130 | 1010 ± 20 | 1950 ± 1950 | 1710 ± 140 | 790 ± 5 | 40.2 | 99 | 99 | 101 | 95 | – | 100 | 24.8 | 51.5 | 63.1 | 12.5 |
| CNC(=O)c1cc2c(Oc3ccc(NC(=O)C4(C(=O)Nc5ccc(F)cc5)CC4)cc3)ccnc2cc1OC [Zanzalintinib, reference compound] | 7580 ± 180 | 3280 ± 1840 | 6170 ± 150 | 22600 ± 1050 | 6860 ± 260 | 16.3 | – | – | – | – | – | – | 5.43 | 135 | 150 | 9.49 |
